US9980943B2, “Methods of treating muscular dystrophy” (BOARD OF REGENTS OF THE NEVADA SYSTEM OF HIGHER EDUCATION, …, priority 2013, dated 2018)

Legend:
Type in all cases: cell-based, mouse
[1] = test system: α7 integrin (LacZ reporter in α7βgal+/− myoblasts); assay: Myoblast α7+/LacZ integrin FDG assay (Burkin assay in myoblasts, 96-well); details: α7+/LacZ myoblasts, 96-well
[2] = test system: α7 integrin (LacZ reporter in α7+/LacZ myotubes); assay: Myotube α7 integrin FDG assay (Burkin assay in myotubes, 96-well); details: myotubes
[3] = test system: β-galactosidase in CMV-LacZ C2C12 myoblasts; assay: CMV-LacZ secondary screen in C2C12 myoblasts (β-Gal stabilizing assay); details: CMV-LacZ C2C12 myoblasts
Procedure, shortened: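 β-Gal level was the read-out, measured in a clonal C2C12 line expressing LacZ from a CMV promoter. Dose-response curves used six concentrations, 0.5 μM up to 40 μM, with duplicate points.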

[4] = test system: β-galactosidase in CMV-LacZ C2C12 myotubes; assay: CMV-LacZ secondary screen in C2C12 myotubes (β-Gal stabilizing assay); details: C2C12 CMV-LacZ myotubes, fold relative to DMSO
Procedure, shortened: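 First, C2C12 myoblasts were transfected with a linearized CMV-LACZ vector and clonal lines selected by FDG β-gal assay. Then cells were exposed to compounds at 0.5, 1, 5, 10, 20 and 40 μM in 96-well format, two replicates each, and β-gal measured.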

Compound	Burkin Assay in Myoblasts, signal relative to DMSO ([1]; 0.5 uM)	Burkin Assay in Myoblasts, signal relative to DMSO ([1]; 1 uM)	Burkin Assay in Myoblasts, signal relative to DMSO ([1]; 5 uM)	Burkin Assay in Myoblasts, signal relative to DMSO ([1]; 10 uM)	Burkin Assay in Myoblasts, signal relative to DMSO ([1]; 20 uM)	Burkin Assay in Myoblasts, signal relative to DMSO ([1]; 40 uM)	Burkin Assay in Myotubes, α7 integrin LacZ reporter signal relative to DMSO ([2]; 0.5 uM)	Burkin Assay in Myotubes, α7 integrin LacZ reporter signal relative to DMSO ([2]; 1 uM)	Burkin Assay in Myotubes, α7 integrin LacZ reporter signal relative to DMSO ([2]; 5 uM)	Burkin Assay in Myotubes, α7 integrin LacZ reporter signal relative to DMSO ([2]; 10 uM)	Burkin Assay in Myotubes, α7 integrin LacZ reporter signal relative to DMSO ([2]; 20 uM)	Burkin Assay in Myotubes, α7 integrin LacZ reporter signal relative to DMSO ([2]; 40 uM)	CMV-LACZ in Myoblasts (β-galactosidase activity relative to DMSO) ([3]; 0.5 uM)	CMV-LACZ in Myoblasts (β-galactosidase activity relative to DMSO) ([3]; 1 uM)	CMV-LACZ in Myoblasts (β-galactosidase activity relative to DMSO) ([3]; 5 uM)	CMV-LACZ in Myoblasts (β-galactosidase activity relative to DMSO) ([3]; 10 uM)	CMV-LACZ in Myoblasts (β-galactosidase activity relative to DMSO) ([3]; 20 uM)	CMV-LACZ in Myoblasts (β-galactosidase activity relative to DMSO) ([3]; 40 uM)	CMV-LACZ in Myotubes, signal relative to DMSO ([4]; 0.5 uM)	CMV-LACZ in Myotubes, signal relative to DMSO ([4]; 1 uM)	further results
O=C(NCCc1ccc(Cl)cc1)C1CCCO1 (stereo not drawn) [MLS001198271-01]	1.034	1	1.292	1.034	1.088	1.0038	1.0083	0.9334	1.113	0.9856	0.9056	0.8217	1.0204	1.0883	1.2105	0.8516	0.9944	1.2089	0.9933	1.0686	CMV-LACZ in Myotubes, signal relative to DMSO ([4]; 5 uM): 0.9907; CMV-LACZ in Myotubes, signal relative to DMSO ([4]; 10 uM): 0.9957; CMV-LACZ in Myotubes, signal relative to DMSO ([4]; 20 uM): 1.1053; CMV-LACZ in Myotubes, signal relative to DMSO ([4]; 40 uM): 1.0053
N#Cc1ccc(Sc2nc3ccccc3[nH]2)cc1C#N [MLS000110418-01]	1.3095	1.079	1.249	1.12	1.004	0.8889	1.073	1.0975	1.017	0.943	0.9939	0.8855	0.8871	0.9989	1.0913	0.9455	0.8926	0.7141	1.0333	0.9000	CMV-LACZ in Myotubes, signal relative to DMSO ([4]; 5 uM): 0.9617; CMV-LACZ in Myotubes, signal relative to DMSO ([4]; 10 uM): 0.9599; CMV-LACZ in Myotubes, signal relative to DMSO ([4]; 20 uM): 1.0459; CMV-LACZ in Myotubes, signal relative to DMSO ([4]; 40 uM): 1.3647
O=C(c1ccccc1)N1CCN(S(=O)(=O)c2cccs2)CC1 [MLS001035690-01]	1.051	1.151	1.186	0.9872	1.055	1.091	1.111	1.072	1.073	0.9358	0.972	0.9238	0.9819	1.0406	0.9910	1.2020	1.3585	0.9178	1.0474	0.8644	CMV-LACZ in Myotubes, signal relative to DMSO ([4]; 5 uM): 1.1552; CMV-LACZ in Myotubes, signal relative to DMSO ([4]; 10 uM): 1.1317; CMV-LACZ in Myotubes, signal relative to DMSO ([4]; 20 uM): 1.1976; CMV-LACZ in Myotubes, signal relative to DMSO ([4]; 40 uM): 1.0976
